Here are results for four compounds from patent publication US9538745B2, “Methods for the cryopreservation of cells” (The General Hospital Corporation, priority 2006, dated 2017).

Like-named read-outs stand apart in the source and are kept apart here.

Series [1] can be described thus: Vitrification of CPA laden solutions: visible opacity after plunging into liquid nitrogen. It is filed as physicochemical. The source says: One convenient way for determining non-vitrification is the appearance of opacity as a result of ice formation when freezing solutions in a straw. If there is no visible opacity, it is called apparent vitrification. Although opacity could be easily identified in the traditional plastic straw using the naked eye, it is very difficult to do so for the quartz micro-capillary due to its small dimension. Therefore, an experimental setup shown in FIG. 10 was designed for visualization of opacity during cooling by directing two focused lights on the capillary held against a dark background for all the devices shown in FIG. 1 except the stainless steel micro-capillary. […] This setup was used to determine the threshold (minimum) CPA concentration required to completely avoid opacity during cooling. […] Various total CPA concentrations from 12% to 30% by volume with 2% increments were studied using both the open pulled straw and the thin walled quartz micro-capillary. Since 0.2-1 M sucrose or trehalose has been used in essentially all studies for cryopreservation of mammalian oocytes by both slow freezing and vitrification, further studies were also performed using the quartz micro-capillary for solutions with 0.5 M sucrose or trehalose plus 1.5 M, 2.0 M, and 2.5 M PROH, respectively. The solutions can be loaded into the open pulled straw and quartz micro-capillaries by capillary action while it can be expelled out of the capillaries by using a micro-syringe attached with a soft PEP polymer needle tip to push from the end of the capillaries with a bigger opening.

Series [2] in a line: Critical cooling rate to achieve vitrification (Vcc) from Boutron's semi-empirical theory and DSC constant K4. It is filed as physicochemical. The source says: The critical cooling rate to achieve vitrification (Vcc) is a function of the concentration of cryoprotectant. It has been extensively studied in the case of 1,2-propanediol and other alcohols with relevance in cryobiology, although mainly in the range of cooling rates achievable by differential scanning calorimetry (DSC) techniques. However, it is possible to obtain estimates of the critical cooling rates at other […]. The presence of sugars in equimolar concentrations has shown to have no effect on Vcc in the case of monosaccharides and little effect in the case of sucrose for the concentration used in these studies (0.3 M)(Kuleshova et al., Cryobiology 38:199-130, 1999). The Vcc can be inferred from Boutron's semi-empirical theory of glass forming tendency (Boutron, Cryobiology 23:88-102, 1986); it is given by:
To is the initial temperature of crystallization and xg is the amount of ice formed at the critical cooling rate. Many studies in the literature consider a solution to be vitrified when xg≦10^−6 (Liu and McGrath, Proc. 2005 IEEE Eng. Med. Biol. 27th Ann. Conference, p. 7501-7504, 2005). K4 is a constant dependent of the solution and can be determined by DSC. Although there is not data for K4 in the available literature for our solution, some estimation can be done. The values of K4 for 40%, 37.5% and 35% (w/w) of aqueous solutions of 1,2 propanediol are 24.1° C./min, 54.1° C./min and 151° C./min (Ren et al., Cryobiology 31:47-56, 1994). These values of K4 give rise to Vcc values of 8.0×10^2° C./min, 1.8×10^3° C./min and 5.0×10^3° C./min, respectively. So, a tentative value of […] for 1.8 M of 1,2-propanediol is ≈10^4° C./min. […] The exponential fitting of the data is justified by the theory (Ren et al., supra).

The subject of series [3] is R1 murine ES cell line. The series is described as follows: Attachment efficiency of ES cells post vitrification. The conditions noted are these: 0.5 M trehalose, 2 M PROH, or both; QMC plunged into liquid nitrogen; day 1; FIG. 15. It is filed as cell-based. The source says:
(§1) For the purpose of evaluating the maintenance of embryonic stem cell pluripotency, a green fluorescent protein (GFP)-reporter cell system was used. The R1 murine ES cell line which expresses GFP under control of the Oct4 promoter was kindly provided by Andras Nagy (U. Toronto)(Nagy et al., Proc. Nat. Acad. Sci. USA 90:8424, 1993). The ES cell maintenance media consisted of Knockout DMEM+15% Knockout Serum Replacement (Invitrogen, Carlsbad, Calif.) containing 1000 U/ml LIF (Chemicon, Temecula, Calif.). Feeder layer-free ES cells were continually passaged in 0.1% gelatin-coated 75 cm^2 flasks in 5% CO2 humidified air at 37° C.
On the day of experiment, the attached cells were lightly trypsinized for 3-5 minutes and collected. The cells were pelleted at 100×g for 5 minutes and resuspended in cold stem cell media supplemented with 1.5 M 1,2-propanediol (Sigma, St Louis, Mo.) and incubated on ice for 10 minutes. […]
Cell attachment and growth was determined by counting the number of cells per field under a 10× objective. […] The attachment efficiency was calculated as the ratio of the total number of cells per field of a cryopreserved sample to that of the control non-frozen sample at day 1. To assess the proliferation of the attached cells, the total number of cells per field was further monitored for 4 days.

Series [4] relates to R1 murine ES cell line. The series is described as follows: Pluripotent properties of ES cells post vitrification (Oct-4, SSEA-1, alkaline phosphatase). The conditions noted are these: 2 M 1,2-propanediol; ultra-fast cooling in QMC. It is filed as cell-based.
Text: as §1
On the day of experiment, the attached cells were lightly trypsinized for 3-5 minutes and collected. The cells were pelleted at 100×g for 5 minutes and resuspended in cold stem cell media supplemented with 1.5 M 1,2-propanediol (Sigma, St Louis, Mo.) and incubated on ice for 10 minutes. The cells were then spun down at 100×g for 3-5 minutes and resuspended in 1 ml first vitrification solution for 10 minutes. The cells were then spun down at 100×g for 3-5 minutes and resuspended in the second solution at 10×10^6/ml for another 10 minutes. […]

The conditions of series [5]: Ren et al., cited from earlier work.
The test system of series [6] is primary rat hepatocytes. It is filed as cell-based. On the procedure:
The cell viability of hepatocytes was determined immediately post-cryopreservation in quartz micro-capillaries (QMC) in the presence of either no CPA; 0.3 M sucrose; 1.5 M 1,2-propanediol (PROH); 1.5 M PROH and 0.3 M sucrose; or 2.0 M PROH and […]. The number of viable cells was determined in both vitrified samples as well as non-vitrified controls (i.e., no freezing). Cell viability was quantified by the exclusion of trypan blue. […] There was only ˜35% survival for cells loaded with 1.5 M PROH prior to cryopreservation. Sucrose (0.3 M) was then added to the cryopreservation solution with 1.5-2 M PROH. […] When 0.3 M sucrose was added to the cryopreservation solution, the immediate viability jumped to ˜75%.

Setting [7] is: both open pulled straw and quartz micro-capillary, FIG. 14.

As for `OCCO` [Ethylene glycol (EG), ethylene glycol], the “threshold concentration for the complete absence of opacity” value in series [1] was about 4 M.

Regarding `CC(O)CO` (centres unmarked) [1,2-propanediol], in series [2] (1.8 M), the “K4, tentative value” was “≈ 10^4 ° C./min”. Further, the “Vcc (critical cooling rate to achieve vitrification)” value in series [2] (35% (w/w) aqueous solution) is on record as 5.0×10^3 ° C./min; in series [2] (37.5% (w/w) aqueous solution), 1.8×10^3 ° C./min; in series [2] (40% (w/w) aqueous solution) it was 8.0×10^2 ° C./min. The “attachment efficiency (normalized to control)” value in series [3] is on record as “Only a minimum amount of cells can attach”. In addition, in series [4], the “pluripotent properties post-vitrification (Oct-4, SSEA-1, alkaline phosphatase staining)” value was “retained their pluripotent properties”. Moreover, the K4 in series [5] (35% (w/w) aqueous solution) was 151 ° C./min; in series [5] (37.5% (w/w) aqueous solution), 54.1 ° C./min; in series [5] (40% (w/w) aqueous solution) it was 24.1 ° C./min. The “appearance of solution in quartz micro-capillary after plunging into liquid nitrogen” value is given as “opaque” in series [1] (1 M 1,2-propanediol (in FHM)); “clear” in series [1] (2 M 1,2-propanediol (in FHM)); “whitish appearance” in series [1] (7% v 1,2-propanediol in FHM media, FIG. 10); “clear appearance” in series [1] (14% v 1,2-propanediol in FHM media, FIG. 10). Moreover, in series [1] (setting [7]), the “threshold concentration lower than that of ethylene glycol (EG)” value is about 5 % v. The “threshold concentration lower than that of the combination of EG and PROH in a 1:1 ratio” value in series [1] (setting [7]) is on record as 2.5 % v. For the same compound, the “threshold concentration for the complete absence of opacity” value in series [1] (micro-capillary) is about 2 M. In addition, the “cell survival / immediate viability (exclusion of trypan blue)” value in series [6] was about 35%.

As to `OC[C@H]1O[C@@](CO)(O[C@H]2O[C@H](CO)[C@@H](O)[C@H](O)[C@H]2O)[C@@H](O)[C@@H]1O` [sucrose], the “cell survival / immediate viability (exclusion of trypan blue)” value in series [6] was “less than 10%”.

Consider `OC[C@H]1O[C@H](O[C@H]2O[C@H](CO)[C@@H](O)[C@H](O)[C@H]2O)[C@H](O)[C@@H](O)[C@@H]1O` [trehalose], for which, in series [3], the “attachment efficiency (normalized to control)” value is on record as “Only a minimum amount of cells can attach”.
